Test results: US20070225348A1, “Amino acid composition for improving glucose tolerance” (priority 2005, published 2007)

Test system: Zucker Diabetic Fatty rats (model with type 2 diabetes mellitus)
Test: Experiment 2: blood glucose response after oral gavage of glucose with amino acid test mixture or isoleucine solution
Format: in vivo, rat
Conditions: oral gavage 8 ml/kg with glucose, measured at 30, 60, 90 and 120 minutes, control 22.5% glucose solution
Experimental: The control formula (22.5% glucose solution) and the amino acid test formula described in Experiment 1 are prepared and subsequently used in this second experiment, along with an isoleucine mixture as described below. In this second experiment, a high dose isoleucine mixture is prepared by adding L-isoleucine ([…]) to 50 ml beaker followed by 10 ml of 1N HCL. The beaker contents are mixed until dissolved, and thereafter to it is added with agitation 25 ml of a 45% glucose solution. The pH of the resulting mixture is adjusted to 7.0 (+/−1.0) with a 50% sodium hydroxide solution (buffer may be added to stabilize pH). The pH adjusted mixture is transferred to a 50 ml volumetric and brought to volume with distilled water. The mixture is transferred to a beaker with stir bar and continually stirred while filling syringes. Zucker Diabetic Fatty rats, a model of type 2 diabetes, are received at the animal facility for at least one week before testing. Each is weighed the day before the experiment and then assigned to one of […] matched for body weight. After an overnight fast, each rat is weighed and then dosed at 8 ml/kg body weight (oral gavage) with the glucose control, the amino acid test mixture, or the isoleucine solution. Blood glucose concentrations are then measured from the tip of the tail of each animal at 30, 60, 90 and 120 minutes following the gavage.

CC[C@H](C)[C@H](N)C(=O)O [high dose isoleucine, L-isoleucine] was tested, and the “blood glucose concentrations relative to the control” value was “does not significantly affect blood glucose concentrations”.
